Read-outs that look alike come from different tables or passages of the source.
What was measured:
[1] = system: acute focal cerebral ischemia; parameters: species or system cats; conditions: in vivo, ip
[2] = system: neurologic deficits secondary to cerebral ischemia; conditions: cited from earlier work
[3] = system: neurologic deficits produced by unilateral carotid ligation; conditions: cited from earlier work
[4] = system: analgesic response; conditions: cited from earlier work

For `C=CCN1CC[C@]23c4c5ccc(O)c4O[C@H]2C(=O)CC[C@@]3(O)[C@H]1C5` [naloxone, 17 - allyl - 4,5a - epoxy - 3,14 - dihydroxymorphinan - 6 - one], the “prolonging survival (mortality as a function of time following the cerebral artery occlusions)” value [1] is listed as “prolonged survival”, the “neurologic deficits secondary to cerebral ischemia” value ([2]; man, Lancet 2:272-275 (1981)) is listed as “can reverse neurologic deficits” and the “neurologic function and infarct size” value ([3]; gerbils, temporary carotid occlusion, Levy et al. (1982)) is listed as “did not produce improved neurologic function or alter infarct size”. The “neurologic deficits produced by unilateral carotid ligation” value ([3]; gerbils, intraperitoneal administration, Science 215:69-71 (1982)) was “can be reversed” and the “survival and neurologic function” value ([3]; several different models of stroke in gerbils, Holaday and D'Amato (1982)) was “no beneficial effect”.
With `O=C1CC[C@@]2(O)[C@H]3Cc4ccc(O)c5c4[C@@]2(CCN3CC2CC2)[C@H]1O5` [naltrexone] the “prolonging survival (mortality as a function of time following the cerebral artery occlusions)” value [1] was “prolonged survival”.
For “Dynorphin: opioid peptide first isolated from pituitary glands; natural compound's full 17 amino acid sequence”, the analgesic potency ([4]; mice) is given as “little or no analgesic potency”, the “effect on narcotic analgesia in tolerant animals” value ([4]; morphine-tolerant animals / tolerant hosts) is given as “potentiates the analgetic effect of both morphine and β-endorphin” and the “effect on narcotic analgesia in naive animals” value ([4]; naive animals, analgesic response to morphine and β-endorphin / narcotic analgesics) is given as “inhibits, or antagonizes, the analgesic response to both morphine and β-endorphin”.
For `CN1CC[C@]23c4c5ccc(O)c4O[C@H]2[C@@H](O)C=C[C@H]3[C@H]1C5` [morphine], the “neurologic deficits secondary to cerebral ischemia” value ([2]; in vivo) is listed as “exacerbates them”.

Source: patent EP0147194B1 (Hosobuchi, Yoshio, priority 1983, dated 1989)
